For 21 molecules, T/C results are on record in PubChem BioAssay AID192 (DTP/NCI, 2004).

“And” between values parts separate entries of the source, which are not always exact repeats. Equal entries are not always repeated. Inconclusive results and toxic doses are left out.

The assay relates to BDF1 mice, B16 melanoma ip, median survival T/C. Briefly: NCI In Vivo Anticancer Drug Screen. Data for tumor model B16 Melanoma (intraperitoneal) in B6D2F1 (BDF1) mice. To be noted: endpoint: median survival time, higher = longer survival. An outline of the steps:
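Survival or tumor size is measured after treatment of tumor-bearing mice and normalised to the vehicle-treated control group.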

Setting [1] is: dose: 100.0 mg/kg/injection, schedule: Q01DX009 (ip), vehicle: Klucel (hydroxypropylcellulose) (HPC).
The mark [2] stands for this setting: dose: 200.0 mg/kg/injection, schedule: Q01DX009 (ip), vehicle: Klucel (hydroxypropylcellulose) (HPC).
Where [3] appears, read: dose: 400.0 mg/kg/injection, schedule: Q01DX009 (ip), vehicle: Klucel (hydroxypropylcellulose) (HPC).
Where [4] appears, read: dose: 25.0 mg/kg/injection, schedule: Q01DX009 (ip), vehicle: saline with Tween-80.
Setting [5] is: dose: 50.0 mg/kg/injection, schedule: Q01DX009 (ip), vehicle: saline with Tween-80.
Setting [6] is: dose: 100.0 mg/kg/injection, schedule: Q01DX009 (ip), vehicle: saline with Tween-80.
Where [7] appears, read: dose: 200.0 mg/kg/injection, schedule: Q01DX009 (ip), vehicle: saline with Tween-80.
The mark [8] stands for this setting: dose: 100.0 mg/kg/injection, schedule: Q04DX003 (ip), vehicle: Klucel (hydroxypropylcellulose) (HPC).
The mark [9] stands for this setting: dose: 200.0 mg/kg/injection, schedule: Q04DX003 (ip), vehicle: Klucel (hydroxypropylcellulose) (HPC).
Setting [10] is: dose: 400.0 mg/kg/injection, schedule: Q04DX003 (ip), vehicle: Klucel (hydroxypropylcellulose) (HPC).
Setting [11] is: dose: 6.25 mg/kg/injection, schedule: Q01DX009 (ip), vehicle: saline.
Setting [12] is: dose: 12.5 mg/kg/injection, schedule: Q01DX009 (ip), vehicle: saline.
Setting [13] is: dose: 400.0 mg/kg/injection, schedule: Q01DX009 (ip), vehicle: saline with Tween-80.

Regarding `O=c1[nH]cc(N(CCCl)CCCl)c(=O)[nH]1`, the T/C runs as follows: (dose: 0.05 mg/kg/injection, schedule: Q01DX009 (ip), vehicle: saline with Tween-80) 95 % of control; (dose: 0.08 mg/kg/injection, schedule: Q01DX009 (ip), vehicle: saline with Tween-80) 105 % of control; (dose: 0.14 mg/kg/injection, schedule: Q01DX009 (ip), vehicle: saline with Tween-80) 112 % of control; (dose: 0.19 mg/kg/injection, schedule: Q01DX009 (ip), vehicle: saline) 107 % of control; (dose: 0.65 mg/kg/injection, schedule: Q01DX009 (ip), vehicle: saline with Tween-80) 170 % of control; (dose: 1.1 mg/kg/injection, schedule: Q01DX009 (ip), vehicle: saline with Tween-80) 205 % of control. Also, the T/C (dose: 1.5 mg/kg/injection, schedule: Q01DX009 (ip), vehicle: saline) was 185 % of control.

Consider `Cc1ccc(CNc2ccc(C)cc2)cc1`, for which the T/C is 100 % of control under setting [1] and 100 % of control under setting [2].

As to `CCCCCCC(=O)CC(C)C`, the T/C is 93 % of control under setting [1], 90 % of control under setting [2] and 86 % of control under setting [3].

As for `Nc1ccc(S(=O)(=O)c2ccc(N)cc2)cc1`, the T/C runs as follows: (dose: 12.5 mg/kg/injection, schedule: Q01DX009 (ip), vehicle: saline with Tween-80) 107 % of control; under setting [4], 97 % of control and 102 % of control; under setting [5], 90 % of control and 94 % of control; under setting [6], 93 % of control and 95 % of control; under setting [7], 94 % of control.

On to `Cc1cc(Cl)ccc1NC(=O)c1ccccc1C(=O)O`, for which the T/C by setting is: under setting [1], 96 % of control; under setting [8], 93 % of control; under setting [2], 100 % of control; under setting [9], 96 % of control; under setting [10], 106 % of control.

Turning to `CCN(CC)CCC1CCNCC1`, the T/C is 112 % of control under setting [11]; 112 % of control under setting [12]; 106 % of control (dose: 25.0 mg/kg/injection, schedule: Q01DX009 (ip), vehicle: saline).

As to `c1ccc(-c2nn(-c3ccccc3)[n+](-c3cccc4ccccc34)n2)cc1`, the T/C is 97 % of control (dose: 2.0 mg/kg/injection, schedule: Q01DX009 (ip), vehicle: saline with Tween-80) and 93 % of control (dose: 4.0 mg/kg/injection, schedule: Q01DX009 (ip), vehicle: saline with Tween-80).

With `O=[N+]([O-])c1ccc2c(c1)sc1cc([N+](=O)[O-])c(Br)cc12`, the T/C is 102 % of control under setting [5], 102 % of control under setting [6], 100 % of control under setting [7] and 90 % of control under setting [13].

For `COc1ccc(N=C(C(=Nc2ccc(OC)cc2)c2ccccc2)c2ccccc2)cc1`, the T/C under setting [8] was 102 % of control, the T/C under setting [9] is 103 % of control and the T/C under setting [10] was 101 % of control.

`COC(=O)CC1(O)C=CC(=O)C=C1`: the T/C was 95 % of control (dose: 1.56 mg/kg/injection, schedule: Q01DX009 (ip), vehicle: Klucel (hydroxypropylcellulose) (HPC)); 98 % of control (dose: 2.5 mg/kg/injection, schedule: Q01DX009 (ip), vehicle: saline with Tween-80); 96 % of control (dose: 3.12 mg/kg/injection, schedule: Q01DX009 (ip), vehicle: Klucel (hydroxypropylcellulose) (HPC)); 102 % of control (dose: 5.0 mg/kg/injection, schedule: Q01DX009 (ip), vehicle: saline with Tween-80); 97 % of control (dose: 6.25 mg/kg/injection, schedule: Q01DX009 (ip), vehicle: Klucel (hydroxypropylcellulose) (HPC)); 93 % of control (dose: 10.0 mg/kg/injection, schedule: Q01DX009 (ip), vehicle: saline with Tween-80). Moreover, the T/C is 94 % of control (dose: 12.5 mg/kg/injection, schedule: Q01DX009 (ip), vehicle: Klucel (hydroxypropylcellulose) (HPC)); 102 % of control (dose: 20.0 mg/kg/injection, schedule: Q01DX009 (ip), vehicle: saline with Tween-80); 91 % of control (dose: 25.0 mg/kg/injection, schedule: Q01DX009 (ip), vehicle: Klucel (hydroxypropylcellulose) (HPC)).

Take `COc1cc2c(cc1OC)C(OC)N(C)c1c-2ccc2cc3c(cc12)OCO3` (stereo not given): under setting [4], the T/C is 122 % of control.

In the case of `COc1ccc(Cl)cc1NC(=O)c1ccccc1Cl`, the T/C reads like this: under setting [1], 102 % of control; under setting [2], 108 % of control; under setting [3], 100 % of control.

For `Cc1ccc(Oc2c3c(nc4ccccc24)CCCC3)cc1`, the T/C under setting [6] was 110 % of control, the T/C under setting [7] was 107 % of control and the T/C under setting [13] was 92 % of control.

On to `CCNCc1cc(Nc2nc(NC3CCC(N(C)C)CC3)c3ccccc3n2)ccc1OC` (stereo not given), for which the T/C (dose: 2.5 mg/kg/injection, schedule: Q01DX009 (ip), vehicle: saline) was 105 % of control; the T/C (dose: 5.0 mg/kg/injection, schedule: Q01DX009 (ip), vehicle: saline) is 103 % of control; the T/C (dose: 10.0 mg/kg/injection, schedule: Q01DX009 (ip), vehicle: saline) is 114 % of control; the T/C (dose: 20.0 mg/kg/injection, schedule: Q01DX009 (ip), vehicle: saline) is 122 % of control; the T/C (dose: 40.0 mg/kg/injection, schedule: Q01DX009 (ip), vehicle: saline) is 112 % of control.

On to `O=S(=O)(O)O.[NH-]C1CCCCC1[NH-].[Pt+2]` (stereo not given), for which the T/C is, setting by setting: (dose: 0.32 mg/kg/injection, schedule: Q01DX009 (ip), vehicle: water) 156 % of control and 167 % of control; (dose: 0.63 mg/kg/injection, schedule: Q01DX009 (ip), vehicle: dextrose) 175 % of control; (dose: 0.63 mg/kg/injection, schedule: Q04DX003 (ip), vehicle: water) 160 % of control; (dose: 1.25 mg/kg/injection, schedule: Q01DX009 (ip), vehicle: dextrose) 163 % of control; (dose: 1.25 mg/kg/injection, schedule: Q04DX003 (ip), vehicle: water) 163 % of control; (dose: 3.0 mg/kg/injection, schedule: Q01DX009 (ip), vehicle: water) 150 % of control. Further, the T/C was 150 % of control (dose: 4.0 mg/kg/injection, schedule: Q01DX009 (ip), vehicle: water) and 155 % of control (dose: 5.0 mg/kg/injection, schedule: Q04DX003 (ip), vehicle: water).

With `O=C(O)C1C2CC(O)C(C2)C1C(=O)O` (stereo not given), the T/C is 100 % of control and 94 % of control (dose: 100.0 mg/kg/injection, schedule: Q04DX003 (ip), vehicle: saline); 100 % of control and 91 % of control (dose: 200.0 mg/kg/injection, schedule: Q04DX003 (ip), vehicle: saline); 94 % of control (dose: 400.0 mg/kg/injection, schedule: Q04DX003 (ip), vehicle: saline).

With `COc1cccc2c1C(=O)c1c(O)c3c(c(O)c1C2=O)C[C@@](O)(C(=O)CN1CCN(C)CC1)C[C@@H]3OC1CC(N)C(O)C(C)O1` (stereo not given in full), the T/C is 110 % of control (dose: 1.56 mg/kg/injection, schedule: Q01DX009 (ip), vehicle: water) and 113 % of control (dose: 3.13 mg/kg/injection, schedule: Q01DX009 (ip), vehicle: water).

With `CN1CCC=C(C(=O)N2c3ccccc3Sc3ccc(Cl)cc32)C1`, the T/C by setting is: under setting [11], 96 % of control; under setting [12], 89 % of control.

With `Nc1ncnc2c1c1c(=O)[nH]cnc1n2C1OC(CO)C(O)C1O` (stereo not given), where the note is “dose: 50.0 mg/kg/injection, schedule: Q01DX009 (ip), vehicle: Klucel (hydroxypropylcellulose) (HPC)”, the T/C is 86 % of control.

In the case of `OCC1OCCO1`, the T/C runs as follows: under setting [6], 96 % of control; under setting [7], 93 % of control.

For `O=C1C(N2CC2)=C(N2CCCC(O)C2)C(=O)C(N2CC2)=C1N1CCCC(O)C1` (stereo not given), the T/C (dose: 0.25 mg/kg/injection, schedule: Q01DX009 (ip), vehicle: saline) is 113 % of control and the T/C (dose: 0.5 mg/kg/injection, schedule: Q01DX009 (ip), vehicle: saline) is 120 % of control.
